According to paper PMC8774657, “Peptide-Mucin Binding and Biosimilar Mucus-Permeating Properties” (Gels, 2021):
Where a SMILES comes first, the peptide text is derived from it. Where no end group is shown, it is not given here.

Assay: Biosimilar mucus-permeating assay, in vitro cell-free model
Type: in vitro ADME
Conditions: peptide 1 mM, OPA method; for Mucus permeability (in words): cell-free biosimilar mucus model, PBS pH 7.2, 25 ℃, verbal grade; for Final cumulative mucus permeability at 240 min / Cumulative mucus permeability at 60 min: cell-free, biosimilar mucus (0.3% PAA, 5% mucin, 3.1% BSA, 0.6% lipid mixture, Tween 80) on 10 KDa centrifugal filter, 1 mL, PBS pH 7.2, 470× g, 25 ℃, mean ± SEM, at least three times in triplicate
Procedure: An in vitro cell-free model was established in this study for the quantification of mucus-permeating property of peptides. Biosimilar mucus used in the model consisted of 0.3% (w/v) PAA, 5% (w/v) mucin, 3.1% (w/v) BSA, 0.6% (w/v) lipid mixture including 0.06% (w/v) linoleic acid, 0.36% (w/v) cholesterol, 0.18% (w/v) phosphatidylcholine, and Tween 80 (25% of lipid mixture, w/w). First, the lipid was mixed with Tween 80, whereafter PBS buffer with 150 mM NaCl (5 mM, pH 7.2) was slowly added under magnetic stirring (Cimarec, ThermoFisher Scientific, Waltham, MA USA). On the other hand, PAA was dissolved in PBS buffer prior to the addition of mucin under stirring, and pH adjusted to 7.0 using NaOH (1 M). After mixing the lipids and mucin suspension, BSA was added to finalize the biosimilar mucus and the pH was adjusted to 7.4. The mucus mixture was stored overnight at 4 ℃ before dialyzing (Fisherbrand Regenerated Cellulose Dialysis Tubing, MWCOs from 3500 to 14,000 Daltons) for 72 h against PBS buffer (5 mM, pH 7.2) containing 150 mM NaCl to remove unbound lipids and contaminating proteins from BSA. Mucus-permeating assay was conducted by firstly adding 3.8 mL of dialyzed mucus suspensions to the filter of the centrifugal unit (4 mL, 10 KDa cutoff, Amicon Ultra, Millipore Sigma) followed by centrifugation at 2935× g for 15 min to make the mucus settle down and completely cover the entire membrane before adding peptide solutions (1 mM, 1 mL) or 1 mL of PBS buffer as blank. Afterwards, the permeate during centrifugation at 25 ℃ and 470× g was collected every 15 min for 4 h. The peptide content in the permeate was measured using the OPA method. The mucus permeability of the peptides was quantified using Equation (2). (2) P=np−nb/nT×100 PP is the percentage permeability, np represents the permeated peptides (µmol), nb is the blank (µmol), and nT is the total loaded peptide amount (µmol).

CSCC[C@H](NC(=O)[C@@H](N)CCCCN)C(=O)N1CCC[C@H]1C(=O)N[C@H](C(=O)O)C(C)C [Pep5, KMPV] (H-KMPV-OH)
Mucus permeability (in words): low mucus permeability
Final cumulative mucus permeability at 240 min: 13 ± 2%

CSCC[C@H](NC(=O)[C@@H](N)Cc1ccc(O)cc1)C(=O)N[C@@H](CO)C(=O)N[C@H](C(=O)O)C(C)C [Pep3, YMSV] (H-YMSV-OH)
Mucus permeability (in words): low mucus permeability
Final cumulative mucus permeability at 240 min: 44 ± 12%

CC(C)C[C@H](NC(=O)[C@H](CO)NC(=O)[C@H](C)NC(=O)[C@@H]1CCCN1)C(=O)O [Pep6, PASL] (H-PASL-OH)
Mucus permeability (in words): high mucus permeability
Cumulative mucus permeability at 60 min: 40 ± 17%
Final cumulative mucus permeability at 240 min: 92 ± 27%

C[C@@H](O)[C@H](N)C(=O)N[C@@H](CC(N)=O)C(=O)NCC(=O)N[C@@H](CCC(N)=O)C(=O)O [Pep4, TNGQ] (H-TNGQ-OH)
Mucus permeability (in words): high mucus permeability
Cumulative mucus permeability at 60 min: 96 ± 30%
Final cumulative mucus permeability at 240 min: 142 ± 35%

KIPAVF [Pep1, KIPAVF]
Mucus permeability (in words): low mucus permeability
Final cumulative mucus permeability at 240 min: 23 ± 6%

QIGLF [Pep7, QIGLF]
Mucus permeability (in words): low mucus permeability
Final cumulative mucus permeability at 240 min: 51 ± 9%

CSCC[C@H](N)C(=O)N[C@@H](C)C(=O)N[C@@H](CC(N)=O)C(=O)N[C@H](C(=O)O)[C@@H](C)O [Pep2, MANT] (H-MANT-OH)
Mucus permeability (in words): low mucus permeability
Final cumulative mucus permeability at 240 min: 21 ± 5%
